Measurements from patent publication US20220178900A1, “BIORELEVANT COMPOSITION” (BIORELEVANT.COM LTD., priority 2019, published 2022).

Experiments:
Format in all cases: physicochemical
[1] = Dissolution in biorelevant fed state gastric media (FEDGAS), USP 2 Dissolution Apparatus at 75 rpm, HPLC; conditions: within 60 minutes; fed state gastric media at pH 6, pH 4.5 and pH 3
[2] = as above; conditions: for dissolution in fed state gastric media compared with fasted state gastric media: fed state gastric media across pH 6 to pH 3; for pH dependence of dissolution profiles in fed state gastric media: fed state media pH 6, pH 5, pH 3
Description: In the case studies from 1 to 4, FEDGAS media at pH 6, pH 5 and pH 3 were prepared by adding the appropriate amount of purified water in a suitable container, adding the corresponding buffer concentrate and adding the appropriate amount of biorelevant precursor concentrate and mixing with a magnetic stirrer until homogeneous.
(§1) Three biorelevant fed state gastric media at pH 6, pH 5 and pH 3 using the composition in Table 5 were produced. The media at these three pHs were characterised by measuring pH, buffer capacity, particle size (Z-average and polydispersity using Nanosizer) and surface tension (Kruss surface tension K6). The media were stable at time zero and physically stable after 24 hours. Similarly, the key physicochemical properties were unchanged after 24 hours. The dissolution of exemestane (4 tablet×25 mg tablets) in the media was carried out using USP 2 Dissolution Apparatus at 75 rpm (n=6 vessels). Samples of the three biorelevant media were taken from the dissolution vessels and filtered through a 0.45 micrometer nylon filter with prefilter at 5 mins, 10 mins, 15 mins, 20 mins, 25 mins, 30 mins, 45 mins, 60 mins, 90 mins and 120 mins and analysed for exemestane content by HPLC. […] Within 30 minutes more than 80% of the drug was dissolved across the three media.

[3] = Dissolution in fasted state gastric media (control experiment); conditions: for drug dose dissolved: after 2 hours of dissolution, fasted state gastric media
Description: as §1
The dissolution of Sturgeron (15 mg cinnarizine immediate release tablets) was tested in a fasted gastric media (control experiment) and compared with fed gastric media at pH 6, pH 5 and pH 3 using the same dissolution set up as described previously. The dissolution profile of this drug product in the fasted gastric media indicates this basic drug cinnarizine dissolves rapidly in the fasted stomach. […]
The dissolution of danazol (100 mg) hard gelatine capsules was carried out in fasted state gastric media (control) and compared with biorelevant fed state gastric media at pH 6, pH 4.5 and pH 3 as described using the set up and method in the Case Study 1. […] Case Study 6—Examining Physicochemical Properties of FEDGAS Dissolution Media Stored for 72 Hrs at Room Temperature with Dissolution of Megesterol Acetate Capsules FEDGAS media at pH 6, pH 4.5 and pH 3 were prepared by adding the appropriate amount of water in a suitable container, adding the corresponding buffer concentrate and adding the appropriate amount of readily water dispersible biorelevant precursor concentrate and mixing with a magnetic stirrer until homogeneous. […]

[4] = FEDGAS dissolution media stored for 72 hrs at room temperature; conditions: 160 mg capsules in 900 mL; FEDGAS pH 6, pH 4.5, pH 3; room temperature storage
Description: The dissolution of danazol (100 mg) hard gelatine capsules was carried out in fasted state gastric media (control) and compared with biorelevant fed state gastric media at pH 6, pH 4.5 and pH 3 as described using the set up and method in the Case Study 1. Referring to FIG. 6, the dissolution in fasted gastric media is negligible even after 2 hours of dissolution. Less than 0.2% of the drug dose is dissolved even after 2 hours of dissolution. […] Dissolution reaches about 55% of the dosage form within 60 minutes in fed state gastric media at pH 6, pH4.5 and pH 3 respectively. Case Study 6—Examining Physicochemical Properties of FEDGAS Dissolution Media Stored for 72 Hrs at Room Temperature with Dissolution of Megesterol Acetate Capsules FEDGAS media at pH 6, pH 4.5 and pH 3 were prepared by adding the appropriate amount of water in a suitable container, adding the corresponding buffer concentrate and adding the appropriate amount of readily water dispersible biorelevant precursor concentrate and mixing with a magnetic stirrer until homogeneous. The three media were stored at room temperature for up to 72 hours. […] The pH, buffer capacity, surface tension and particle size (Z-average) of the FEDGAS pH 6 and FEDGAS pH 3 were measured at t=0 and at t=72 hours. […]

Row | Structure (SMILES) | dissolution in fed state gastric media compared with fasted state gastric media [2] | drug dose dissolved [3] | pH dependence of dissolution profiles in fed state gastric media [2] | further results
1 | C#C[C@]1(O)CC[C@H]2[C@@H]3CCC4=Cc5oncc5C[C@]4(C)[C@H]3CC[C@@]21C [danazol] | considerably more rapidly | Less than 0.2% | – | Dissolution, % of the dosage form [1]: about 55%
2 | C(=C\c1ccccc1)/CN1CCN(C(c2ccccc2)c2ccccc2)CC1 [cinnarizine] | slower drug dissolution in all fed state gastric media | – | faster at lower pH | drug dissolved ([3]; within 30 minutes, fasted gastric media): ~90%
3 | C=C1C[C@@H]2[C@H](CC[C@]3(C)C(=O)CC[C@@H]23)[C@@]2(C)C=CC(=O)C=C12 [exemestane] | – | – | not sensitive to different pHs | drug dissolved ([2]; within 30 minutes, across the three fed state media pH 6, pH 5 and pH 3, 4 x 25 mg tablets): more than 80%
4 | Cc1cccc(Nc2ccccc2C(=O)O)c1C [mefenamic acid] | considerably more rapidly | Less than 0.1% | – | Dissolution, % of the dosage form ([2]; within 30 minutes, fed state gastric media pH 3): ~10%; Dissolution, % of the dosage form ([2]; within 30 minutes, fed state gastric media pH 5): ~25%; Dissolution, % of the dosage form ([2]; within 30 minutes, fed state gastric media pH 6): about 45%
5 | CC(=O)O[C@]1(C(C)=O)CC[C@H]2[C@@H]3C=C(C)C4=CC(=O)CC[C@]4(C)[C@H]3CC[C@@]21C [megesterol acetate] | – | – | – | dissolution profiles in media stored t=0, 24, 48, 72 hours [4]: identical
